In data set [1] the test system is HepG2. The data set is described as follows: Cytotoxicity against human HepG2 cells assessed as cell viability at 0.1 to 5 uM compound administrated as copper complex measured at 24 hrs by MTT assay. The class given is functional, cell-based. Conditions: dose 0.1-5 µM.
Data set [2] can be described thus: Induction of copper transporting activity in human HeLa cells assessed as fold increase in intracellular copper levels at 2 uM incubated for 4 hrs by ICP-MS analysis. The class given is functional.
Data set [3] deals with Hepatocyte. The data set is described as follows: Cytotoxicity against mouse Hepatocyte assessed as cell viability at 0.1 to 5 uM measured at 24 hrs by MTT assay. The conditions noted are these: hepatocytes, dose 0.1-5 µM. The class given is toxicity, cell-based. On the technique in general: Tetrazolium assays rely on reduction of a dye to a coloured formazan, in cell work by metabolically active cells.

Data set [4] concerns HepG2. The data set is described as follows: Anti-NAFLD activity in palmitic acid human HepG2 NAFLD cell model assessed as cell viability at 0.1 to 0.5 uM compound administrated as copper complex measured at 24 hrs by MTT assay. The class given is functional, cell-based. The conditions noted are these: dose 0.1-0.5 µM.
Data set [5] has as its system HepG2. The data set is described as follows: Cytotoxicity against human HepG2 cells assessed as cell viability at 0.1 to 5 uM measured at 24 hrs by MTT assay. The class given is functional, cell-based. The conditions noted are these: dose 0.1-5 µM.
The test system of data set [6] is Hepatocyte. The data set is described as follows: Cytotoxicity against mouse Hepatocyte assessed as cell viability at 0.1 to 5 uM compound administrated as copper complex measured at 24 hrs by MTT assay. The conditions noted are these: hepatocytes, dose 0.1-5 µM. The class given is toxicity, cell-based.
Data set [7] concerns HepG2. The data set is described as follows: Anti-NAFLD activity in palmitic acid human HepG2 NAFLD cell model assessed as increase in ROS level at 5 uM compound administrated as copper complex measured at 24 hrs by DCFH-DA probe based flow cytometry analysis. Format: functional. A general note: A flow cytometer gives signals particle by particle.

Calls of active or inactive are those of the source. No cut-off for these calls is given here.

Take `COc1ccc2oc(-c3ccc4cccc(O)c4n3)c(O)c(=O)c2c1`: the result in the data set on HepG2 [1], with HepG2 [4], with HepG2 [5] and in the data set with HepG2 [7] was Active. For the same compound, the “fold change (FC)” value in data set [2] is reported as approximately 5. Also, the Activity result in the data set with Hepatocyte [3] and with Hepatocyte [6] was “Non-toxic” each time.

Consider `O=c1c(O)c(-c2ccc3c(Cl)ccc(O)c3n2)oc2ccccc12`, for which the outcome with HepG2 [1], in the data set on HepG2 [4], in the data set on HepG2 [5] and in the data set on HepG2 [7] was Active. Moreover, the “fold change (FC)” value in data set [2] was approximately 5. For the same compound, the Activity result with Hepatocyte [3] and in the data set on Hepatocyte [6] was “Non-toxic” each time.

For the origin of these results see ChEMBL document CHEMBL6115034, “Pseudonatural Flavonols as Novel Copper Ionophores for NAFLD Intervention via Synergistic Copper Delivery and Flavonoid Activity” (J Med Chem, 2025).
